# Structures can show the parent of a compound that is named as a salt.
# Experiments:
# [1] = tested on: LSK cells; test: Colony assay of Lin−Sca1+c-Kit+ (LSK) cells from wildtype mice; assay type: cell-based
# Method: FIG. 5A-5F. PU.1 inhibitors decrease the granulo-monocytic potential of hematopoietic stem and progenitor cells, which is rapidly reversible. (A-C) Lin-Sca1+c-Kit+(LSK) cells were plated in semi-solid media containing PU.1 inhibitors. (A) Number of colony-forming unit granulocyte (CFU-G), monocyte (CFU-M), granulo/monocyte (CFU-GM), granulo/erythrocyte/monocyte/megakaryocyte (CFU-GEMM), burst or colony forming unit erythroid (B/CFU-E) and immature colonies after treatment. Detailed histograms of CFU-GM, CFU-G and CFU-M numbers are shown. Data represent the means±SD of 3 independent experiments. (B) Cells coming from colony assays after vehicle or DB2313 treatment. Cells were cytospun and stained with May-Grünwald Giemsa. Scale bar is equal to 20 μm. (C) FACS analysis showing the percentage of CD11b+Gr1−, CD11b+Gr1+, CD11b−Gr1+, CD41+Ter119−, CD41+Ter119+, CD41−Ter119+ populations after colony assays. Data represent the means±SD of 4 independent experiments. (D,E) Cells coming from colony assays treated with DB2313 were replated in the presence (+DB2313) or in the absence of DB2313 (−DB2313) and the percentage of CD11b+Gr1−, CD11b+Gr1+ cells was assessed one week later after culture in semi-solid media. (D) Representative FACS plots (E) Percentage of CD11b+Gr1− and CD11b+Gr1+ populations. Data represent the means±SD of 3 independent experiments; fold change compared to replating with DB2313 is shown. (F) Serial replating assay with D2313 continuous treatment (n=3). Data represent the means±SD of technical triplicate from one representative experiment. *P<0.05, **P<0.01, ***P<0.001,
# In order to determine the effect of our PU.1 inhibitors on normal hematopoietic differentiation, we sorted immature Lin^−Sca1^+c-Kit^+ (LSK) cells from wildtype mice and studied their clonogenic potential following treatment with either DB1976, DB2115, or DB2313. […] Overall, the numbers of viable cells per colony were reduced upon PU.1 inhibitor treatment, again consistent with an effect of PU.1 inhibition on more mature, differentiating cells. […]
# [2] = tested on: PU.1 targets Csf1r, Junb, PU.1, E2f1; test: Quantitative RT-PCR of PU.1 target transcripts in PU.1 URE−/− AML cells; assay type: cell-based, murine
# Method: FIG. 3A-3G. Novel inhibitors show on-target PU.1 inhibitory activity. (A) Quantitative RT-PCR analysis of Csf1r, Junb, Sfpi1, E2f1 expression after 72 h (n=6) and, for Csf1r, after 1 h (n=3), 4 h (n=7), 8 h (n=3) and 24 h (n=3) of treatment with the small molecules in URE−/− cells, expression is normalized to GAPDH expression. Data represent means±SD of technical triplicate from one representative experiment; fold change compared to Vehicle is shown. (B) Chromatin immunoprecipitation assay showing PU.1 occupancy on E2f1, Junb, Csf1r promoters after treatment in Umsh cell line (n=5). 10·10^6 cells were collected for each condition after 8 h treatment with a double dose of the small molecules (50 uM for DB1976, 1.4 uM for DB2115 and 660 nM for DB2313) or Vehicle; and processed for ChIP using PU.1 monoclonal antibody. Myogenin was used as a negative control, not regulated by PU.1. Data represent means±SD of technical triplicate from one representative experiment. (C) Cell viability after PU.1 rescue in MOLM13 cells. MOLM13 were transduced with a lentiviral construct expressing either PU.1-GFP (PU.1, black bar) or GFP as a control (empty, white bar), sorted on GFP and plated with DB1976 (n=7), DB2115 (n=8), DB2313 (n=6) or Vehicle. Cell count was performed after 4 days. Data represent means±SD of technical triplicate from one representative experiment; fold change compared to Vehicle is shown. (D-G) Transcriptome analysis of URE−/− cells after 24 h of treatment with DB2313 versus vehicle (n=3). Differentially expressed genes were determined with a fold change at 1.2 and a P value <0.1. (D) Enrichment in genes directly regulated by PU.1 or in genes regulated by the other ETS transcription factors Ets1, Gabpa, Spi-B, Fli-1, using Ingenuity Knowledge Base. The red dotted line represents the significance threshold (−log (P value)>1.3). (E,F) Comparison analysis of deregulated genes in URE−/− cells after DB2313 treatment and in PUER cells after PU.1 induction (GSE13125). Deregulated gens in PUER cells were analyzed with a FC at 1.5 and P-value <0.05. (E) Significant overlap between the 2 datasets, with 484 genes commonly deregulated. P-value was calculated using the hypergeometric test. (F) Comparative analysis of deregulated canonical pathways between the 2 datasets (z-score >2 for PUER dataset). Colored squares indicate activation z-score. (G) Enrichment of PU.1 binding at promoters of all, up- and down-deregulated genes after DB2313 treatment. […]
# To assess on-target activity of our inhibitors in AML cells, we measured transcript levels of well-known PU.1 targets in PU.1 URE^−/− AML cells. […] As Csf1r is one of the most sensitive PU.1 targets in myeloid cells, we assessed its expression at different time points (1 h, 4 h, 8 h and 24 h) after drug treatment. […]
# [3] = second plating, vs replating with compound
Compound,"toxicity on LSK cells ([1]; majority of colonies unidentifiable, majority of dead cells)","Csf1r, Junb, and PU.1 transcript expression [2]",E2f1 expression [2],"increase of production of mature granulocytes after removing the treatment [1, 3] [fold]","increase of production of mature monocytes after removing the treatment [1, 3] [fold]"
N=C(N)c1ccc2nc(-c3ccc(-c4nc5ccc(C(=N)N)cc5[nH]4)[se]3)[nH]c2c1 [DB1976],appeared to show toxicity,–,–,–,–
N=C(N)c1ccc2nc(-c3ccc(OCCCCOc4ccc(-c5nc6ccc(C(=N)N)cc6[nH]5)cc4)cc3)[nH]c2c1 [DB2115],–,decrease,increase,–,–
"CC(C)NC(=N)c1ccc2nc(-c3ccc(OCc4cccc(COc5ccc(-c6nc7ccc(C(=N)NC(C)C)cc7[nH]6)cc5)c4F)cc3)[nH]c2c1 [DB2313, 3-Bis{4[4(5)-N-isopropylamidinobenzimidazolyl]phenoxymethyl]}-2-fluorobenzene tetrahydrochloride]",–,decrease,increase,4,22
